Source: PubChem BioAssay AID248 (DTP/NCI, 2004)
Inconclusive results and toxic doses are left out. No stated cut-off is given here; in the data, active means T/C of 150% or more; inactive means T/C below 125%.

System: L1210 leukemia ip in BDF1 mice, survival T/C
Test: NCI In Vivo Anticancer Drug Screen. Data for tumor model L1210 Leukemia (intraperitoneal) in B6D2F1 (BDF1) mice
Conditions: endpoint: mean survival time, higher = longer survival
Procedure, shortened: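 Transplantable tumor model; survival measured in treated vs vehicle control mice. Value = treated/control.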

[1] = dose: 100.0 mg/kg/injection, schedule: Q04DX003 (ip), vehicle: Klucel (hydroxypropylcellulose) (HPC)
[2] = dose: 200.0 mg/kg/injection, schedule: Q04DX003 (ip), vehicle: Klucel (hydroxypropylcellulose) (HPC)
[3] = dose: 400.0 mg/kg/injection, schedule: Q04DX003 (ip), vehicle: Klucel (hydroxypropylcellulose) (HPC)
[4] = dose: 100.0 mg/kg/injection, schedule: Q01DX001 (ip), vehicle: saline
[5] = dose: 200.0 mg/kg/injection, schedule: Q01DX001 (ip), vehicle: saline
[6] = dose: 400.0 mg/kg/injection, schedule: Q01DX001 (ip), vehicle: saline
[7] = dose: 100.0 mg/kg/injection, schedule: Q04DX003 (ip), vehicle: saline with Tween-80
[8] = dose: 100.0 mg/kg/injection, schedule: Q01DX009 (ip), vehicle: Klucel (hydroxypropylcellulose) (HPC)
[9] = dose: 200.0 mg/kg/injection, schedule: Q01DX009 (ip), vehicle: Klucel (hydroxypropylcellulose) (HPC)
[10] = dose: 400.0 mg/kg/injection, schedule: Q01DX009 (ip), vehicle: Klucel (hydroxypropylcellulose) (HPC)
[11] = dose: 100.0 mg/kg/injection, schedule: Q01DX009 (ip), vehicle: saline with Tween-80
[12] = dose: 200.0 mg/kg/injection, schedule: Q01DX009 (ip), vehicle: saline with Tween-80
[13] = dose: 200.0 mg/kg/injection, schedule: Q04DX003 (ip), vehicle: saline with Tween-80
[14] = dose: 400.0 mg/kg/injection, schedule: Q01DX009 (ip), vehicle: saline with Tween-80
[15] = dose: 400.0 mg/kg/injection, schedule: Q04DX003 (ip), vehicle: saline with Tween-80
[16] = dose: 100.0 mg/kg/injection, schedule: Q01DX001 (ip), vehicle: other
[17] = dose: 200.0 mg/kg/injection, schedule: Q01DX001 (ip), vehicle: other
[18] = dose: 400.0 mg/kg/injection, schedule: Q01DX001 (ip), vehicle: other
[19] = dose: 100.0 mg/kg/injection, schedule: Q04DX002 (ip), vehicle: Klucel (hydroxypropylcellulose) (HPC)
[20] = dose: 200.0 mg/kg/injection, schedule: Q04DX002 (ip), vehicle: Klucel (hydroxypropylcellulose) (HPC)

Measured: T/C

O=C1c2cc(Br)cc(Br)c2NCCCC1(Br)Br
inactive: [1] 94 % of control | [2] 97 % of control | [3] 94 % of control

OCC1(CO)CCC=CO1
inactive: dose: 50.0 mg/kg/injection, schedule: Q01DX001 (ip), vehicle: carboxymethylcellulose (CMC) 113 % of control | dose: 100.0 mg/kg/injection, schedule: Q01DX001 (ip), vehicle: carboxymethylcellulose (CMC) 100 % of control | dose: 200.0 mg/kg/injection, schedule: Q01DX001 (ip), vehicle: carboxymethylcellulose (CMC) 100 % of control | dose: 400.0 mg/kg/injection, schedule: Q01DX001 (ip), vehicle: carboxymethylcellulose (CMC) 97 % of control

CC(=O)OC1CCC2(C)C(CCC3C2CCC2(C)C3CC3OC(CCCC(C)CO)C(C)C32)C1 (stereo not given)
inactive: dose: 25.0 mg/kg/injection, schedule: Q01DX001 (ip), vehicle: saline with Tween-80 88 % of control | dose: 50.0 mg/kg/injection, schedule: Q01DX001 (ip), vehicle: saline with Tween-80 98 % of control | dose: 100.0 mg/kg/injection, schedule: Q01DX001 (ip), vehicle: saline with Tween-80 95 % of control | dose: 400.0 mg/kg/injection, schedule: Q01DX001 (ip), vehicle: saline with Tween-80 95 % of control

NCCCC(N)C(=O)NCCCCCCCCCCNC(=O)C(N)CCCN (stereo not given)
inactive: dose: 10.0 mg/kg/injection, schedule: Q01DX Z (ip), vehicle: saline 93 % of control | dose: 30.0 mg/kg/injection, schedule: Q01DX Z (ip), vehicle: saline 101 % of control

CCCCCOC(=O)Nc1ccc(S(=O)(=O)N(C)C)cc1
inactive: [4] 100 % of control | [5] 108 % of control | [6] 100 % of control

O=C(OC(CCN1CCCCC1)c1ccccc1)c1ccccc1 (stereo not given)
inactive: [7] 100 % of control

C/C(=N/Nc1ccccc1)c1ccccn1
inactive: [1] 98 % of control | [2] 96 % of control | [3] 98 % of control

COC(=O)CCCCCCCC(=O)OCC#CC#CCOC(=O)CCCCCCCC(=O)OC
inactive: [8] 95 % of control | [1] 107 % of control | [9] 90 % of control | [2] 94 % of control | [10] 95 % of control | [3] 91 % of control

CCOC(=O)C12CCCC(C1=O)[N+](CC)(CC)CC2 (stereo not given)
inactive: dose: 75.0 mg/kg/injection, schedule: Q01DX001 (ip), vehicle: saline 100 % of control | dose: 150.0 mg/kg/injection, schedule: Q01DX001 (ip), vehicle: saline 101 % of control

Cc1ccc(Cl)cc1NC(=O)c1ccc(Cl)cc1Cl
inactive: [8] 110 % of control | [1] 92 % of control | [9] 91 % of control | [2] 95 % of control | [10] 89 % of control | [3] 88 % of control

OCC(O)C(O)C(O)C(O)C(O)c1nc2ccccc2[nH]1 (stereo not given)
inactive: [11] 101 % of control | [7] 97 % of control | [12] 98 % of control | [13] 93 % of control | [14] 96 % of control | [15] 103 % of control

CCCCCCCCCCCCCCCCCC(=O)N1C(=O)c2ccccc2C1=O
inactive: [16] 87 % of control | [17] 88 % of control | [18] 92 % of control

Cc1ccc(S(=O)(=O)N2CC(=O)CCc3ccc(Cl)cc32)cc1
inactive: dose: 75.0 mg/kg/injection, schedule: Q01DX009 (ip), vehicle: other 100 % of control | dose: 150.0 mg/kg/injection, schedule: Q01DX009 (ip), vehicle: other 100 % of control | dose: 300.0 mg/kg/injection, schedule: Q01DX009 (ip), vehicle: other 100 % of control

Oc1ccc(/C=N/N2CCN(/N=C/c3ccc(O)cc3O)CC2)c(O)c1
inactive: [4] 97 % of control | [5] 94 % of control | [6] 100 % of control

CCN(CC)N=Nc1ccc(S(=O)(=O)N(C)C)cc1
inactive: dose: 100.0 mg/kg/injection, schedule: Q04DX002 (ip), vehicle: saline with Tween-80 104 % of control | dose: 200.0 mg/kg/injection, schedule: Q04DX002 (ip), vehicle: saline with Tween-80 97 % of control | dose: 400.0 mg/kg/injection, schedule: Q04DX002 (ip), vehicle: saline with Tween-80 115 % of control

C1=C(c2ccccc2)N(C2CCCCCC2)C(c2ccccc2)=CN1Cc1ccccc1
inactive: [19] 96 % of control | [20] 107 % of control | dose: 400.0 mg/kg/injection, schedule: Q04DX002 (ip), vehicle: Klucel (hydroxypropylcellulose) (HPC) 100 % of control

CC(=O)[C@H]1[C@H](C)C[C@H]2[C@@H]3CCC4=CC(=O)CC[C@]4(C)[C@@]3(F)[C@@H](O)C[C@@]21C
inactive: [8] 103 % of control | [1] 100 % of control | [9] 101 % of control | [2] 97 % of control | [10] 97 % of control | [3] 101 % of control

CN(CCO)/N=N/c1nc[nH]c1C#N
inactive: [16] 98 % of control | [11] 103 % of control | [7] 102 % of control | [17] 100 % of control | [12] 103 % of control | [13] 107 % of control | [18] 94 % of control | [14] 113 % of control | [15] 102 % of control

O=C(O)c1c(Cl)n(-c2ccccc2)c2ccccc12
inactive: dose: 50.0 mg/kg/injection, schedule: Q04DX002 (ip), vehicle: Klucel (hydroxypropylcellulose) (HPC) 101 % of control | [19] 104 % of control | [20] 93 % of control

C1=CC2C3CC(OCCOC4CC5CC4C4CC=CC54)C(C3)C2C1 (stereo not given)
inactive: [11] 97 % of control | [7] 98 % of control | [12] 93 % of control | [13] 100 % of control | [14] 104 % of control | [15] 95 % of control

Cc1ccc(C[As+](c2ccccc2)(c2ccccc2)c2ccccc2)cc1
inactive: dose: 10.0 mg/kg/injection, schedule: Q01DX001 (ip), vehicle: saline 97 % of control | dose: 20.0 mg/kg/injection, schedule: Q01DX001 (ip), vehicle: saline 96 % of control | dose: 40.0 mg/kg/injection, schedule: Q01DX001 (ip), vehicle: saline 96 % of control

COC(=O)C#CC(=O)OC
inactive: dose: 3.13 mg/kg/injection, schedule: Q04DX003 (ip), vehicle: Klucel (hydroxypropylcellulose) (HPC) 101 % of control | dose: 6.25 mg/kg/injection, schedule: Q04DX003 (ip), vehicle: Klucel (hydroxypropylcellulose) (HPC) 99 % of control | dose: 12.5 mg/kg/injection, schedule: Q04DX003 (ip), vehicle: Klucel (hydroxypropylcellulose) (HPC) 111 % of control

CN(C)CCC(O)Cc1ccccc1 (stereo not given)
inactive: dose: 100.0 mg/kg/injection, schedule: Q01DX009 (ip), vehicle: acetone 95 % of control | dose: 200.0 mg/kg/injection, schedule: Q01DX009 (ip), vehicle: acetone 101 % of control

COc1cc2c(cc1OC)C13CCN4CC5=CCOC6CC(=O)N2C1C6C5CC43O (stereo not given)
inactive: [4] 89 % of control | [5] 86 % of control | [6] 89 % of control

CCOC(=O)c1cnc(SC)nc1Nc1ccccc1F
inactive: [7] 89 % of control | [13] 92 % of control

OC(/C=C/c1ccccc1)CC(O)(C(F)(F)F)C(F)(F)F (stereo not given)
inactive: [7] 103 % of control | [13] 110 % of control | [15] 110 % of control
